Consider three compounds from patent US4269857A, “Control of plant-virus diseases” (Kureha Kagaku Kogyo Kabushiki Kaisha, priority 1978, dated 1981).

The structures appear in SMILES notation.

The inhibition is the share of the control response that was lost under treatment.

Assay [1] deals with tobacco mosaic virus (TMV). The assay is described as follows: Inhibition of local lesion formation by TMV, half-leaf method on kidney bean primary leaves. In kind it is in vivo, tobacco mosaic virus on kidney bean plants (variety: Otebo). The settings on record: Tobacco mosaic virus, TMV, kidney bean primary leaves, 500 ppm, painted just after inoculation, half-leaf method; read-out: Evaluation (rate of inhibition of lesion spot formation). An excerpt: In the experiments one of the compounds of the present invention was formulated as in the above-mentioned Example 3 and after diluting the formulated composition with water to a predetermined concentration.
In this test, the inhibiting action of the compound of the present invention against the formation of local lesion due to the infection of tobacco mosaic virus (TMV) was examined by the half-leaf method using primary leaves of kedny been plants (variety: Otebo). TMV was inoculated on the primary leaf of kedney been plant, and just after the inoculation, the diluted liquid of the compound was painted on the half surface of the leaf and water was painted on the other half surface of the leaf. The concentration of the compounds of the present invention in the liquid was 500 ppm, and the inoculum was adjusted to form about 50 topical lesion spots on the half surface of the leaf painted with water (control). Ten leaves were usually used for the evaluation of one compound, and the rate of inhibition of lesion spot formation was derived from the following formula: [formula]
The thus obtained rates of inhibition were evaluated according to the following criteria: […]

For assay [2], the system named is cucumber mosaic virus (CMV). As to the kind of experiment: Inhibition of CMV disease transmitted by aphids (Myzus persicae) on cucumber plants. In kind it is in vivo. To be noted: CMV via wingless aphids, 500 ppm, sprayed before aphid transmigration, one week after spray. An excerpt:
The followings are the test results of the compounds of the present invention in the plant virus disease-controlling experiments. In the experiments one of the compounds of the present invention was formulated as in the above-mentioned Example 3 and after diluting the formulated composition with water to a predetermined concentration.
The compounds evaluated as A in Test results 2 were further tested as follows:
The cucumber plants growing for two weeks after sowing in greenhouse were sprayed by each liquid containing each compound at a concentration of 500 ppm (variety of cucumber: Kinseisanto). After drying at room temperature about 3 hours, wingless aphids (Myzus persicae, Sulzer) which had been put on the suffered cucumber plant from CMV and shipped the plant sap containing CMV were transmigrated to the sprayed cucumber plants at a rate of 5 insects per plant. On the next day of the transmigration, the insects were killed by spraying dichlorvos in the plants. After one week of the spray of the compound of the present invention, the effectiveness of the compound in inhibiting the occurrence of the sign of disease due to the virus was investigated as the number of plants without the sign of disease per number of plants sprayed. As the control, water was sprayed.

Regarding `CCCCCCCCCCCCNCC[C@H](O)[C@H](O)CO` [Compound 55], in assay [1], the inhibition at 500 ppm was in the range of 90 to 100%. The “Evaluation (number of plants without the sign of disease per number of plants sprayed)” value in assay [2] is “A (10/10-8/10)”.
On the same counts, the results for `CCCCCCCCCCCCNC[C@H](O)[C@@H](O)[C@H](O[C@@H]1O[C@H](CO)[C@H](O)[C@H](O)[C@H]1O)[C@H](O)CO` [Compound 58] are 90 to 100% and “B (7/10-5/10)”.
Regarding `CCCCCCCCCCCCNC[C@H](O)[C@@H](O)[C@H](O[C@@H]1O[C@H](CO)[C@@H](O)[C@H](O)[C@H]1O)[C@H](O)CO` [Compound 61], the inhibition at 500 ppm in assay [1] was in the range of 90 to 100%. Further, the “Evaluation (number of plants without the sign of disease per number of plants sprayed)” value in assay [2] is on record as “B (7/10-5/10)”.
